Patent US20180099931A1 (AbbVie S.à.r.l., priority 2016, published 2018)
pEC50: −log10 of the molar value. Where two headings read alike, the source gives them in different places.

Molecular target: T1, F508delCFTR (Homo sapiens, UniProt P13569, DEL508-508)
T1 construct: expressed in transfected cells; host or cells: CFBE41o- human lung-derived epithelial cells (CFBE4lo-F508delCFTR-HRP), doxycycline-inducible
Assay: Cell Surface Expression-Horse Radish Peroxidase (CSE-HRP) Assay;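 on Maximum % activity (with co-corrector): co-corrector and positive control are both the same reference corrector at 2 µM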;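 on Maximum % activity (without co-corrector): percent of the 2 µM on-plate positive control corrector response above DMSO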
Format: cell-based
Conditions: for Maximum % activity (with co-corrector) / Emax: maximum at any tested concentration, normalized to on-plate positive control; for Emax: read-out: Maximum % activity (without co-corrector)

[1] = test compound without co-corrector, read-out: EC50 (without co-corrector)
[2] = with co-corrector (2 μM of 3-[(2R,4R)-4-({[1-(2,2-difluoro-1,3-benzodioxol-5-yl)cyclopropyl]carbonyl}amino)-7-methoxy-3,4-dihydro-2H-chromen-2-yl]benzoic acid), read-out: EC50 (with co-corrector)
[3] = CSE-HRP, test compound without co-corrector, read-out: EC50 (without co-corrector)
[4] = CSE-HRP, with co-corrector (2 μM of 3-[(2R,4R)-4-({[1-(2,2-difluoro-1,3-benzodioxol-5-yl)cyclopropyl]carbonyl}amino)-7-methoxy-3,4-dihydro-2H-chromen-2-yl]benzoic acid), read-out: EC50 (with co-corrector)
[5] = CSE-HRP, with co-corrector (2 μM)
[6] = test compound without co-corrector
[7] = with co-corrector (2 μM of 3-[(2R,4R)-4-({[1-(2,2-difluoro-1,3-benzodioxol-5-yl)cyclopropyl]carbonyl}amino)-7-methoxy-3,4-dihydro-2H-chromen-2-yl]benzoic acid)

T1 sequence (P13569 with tags, fused parts or gaps DEL508-508): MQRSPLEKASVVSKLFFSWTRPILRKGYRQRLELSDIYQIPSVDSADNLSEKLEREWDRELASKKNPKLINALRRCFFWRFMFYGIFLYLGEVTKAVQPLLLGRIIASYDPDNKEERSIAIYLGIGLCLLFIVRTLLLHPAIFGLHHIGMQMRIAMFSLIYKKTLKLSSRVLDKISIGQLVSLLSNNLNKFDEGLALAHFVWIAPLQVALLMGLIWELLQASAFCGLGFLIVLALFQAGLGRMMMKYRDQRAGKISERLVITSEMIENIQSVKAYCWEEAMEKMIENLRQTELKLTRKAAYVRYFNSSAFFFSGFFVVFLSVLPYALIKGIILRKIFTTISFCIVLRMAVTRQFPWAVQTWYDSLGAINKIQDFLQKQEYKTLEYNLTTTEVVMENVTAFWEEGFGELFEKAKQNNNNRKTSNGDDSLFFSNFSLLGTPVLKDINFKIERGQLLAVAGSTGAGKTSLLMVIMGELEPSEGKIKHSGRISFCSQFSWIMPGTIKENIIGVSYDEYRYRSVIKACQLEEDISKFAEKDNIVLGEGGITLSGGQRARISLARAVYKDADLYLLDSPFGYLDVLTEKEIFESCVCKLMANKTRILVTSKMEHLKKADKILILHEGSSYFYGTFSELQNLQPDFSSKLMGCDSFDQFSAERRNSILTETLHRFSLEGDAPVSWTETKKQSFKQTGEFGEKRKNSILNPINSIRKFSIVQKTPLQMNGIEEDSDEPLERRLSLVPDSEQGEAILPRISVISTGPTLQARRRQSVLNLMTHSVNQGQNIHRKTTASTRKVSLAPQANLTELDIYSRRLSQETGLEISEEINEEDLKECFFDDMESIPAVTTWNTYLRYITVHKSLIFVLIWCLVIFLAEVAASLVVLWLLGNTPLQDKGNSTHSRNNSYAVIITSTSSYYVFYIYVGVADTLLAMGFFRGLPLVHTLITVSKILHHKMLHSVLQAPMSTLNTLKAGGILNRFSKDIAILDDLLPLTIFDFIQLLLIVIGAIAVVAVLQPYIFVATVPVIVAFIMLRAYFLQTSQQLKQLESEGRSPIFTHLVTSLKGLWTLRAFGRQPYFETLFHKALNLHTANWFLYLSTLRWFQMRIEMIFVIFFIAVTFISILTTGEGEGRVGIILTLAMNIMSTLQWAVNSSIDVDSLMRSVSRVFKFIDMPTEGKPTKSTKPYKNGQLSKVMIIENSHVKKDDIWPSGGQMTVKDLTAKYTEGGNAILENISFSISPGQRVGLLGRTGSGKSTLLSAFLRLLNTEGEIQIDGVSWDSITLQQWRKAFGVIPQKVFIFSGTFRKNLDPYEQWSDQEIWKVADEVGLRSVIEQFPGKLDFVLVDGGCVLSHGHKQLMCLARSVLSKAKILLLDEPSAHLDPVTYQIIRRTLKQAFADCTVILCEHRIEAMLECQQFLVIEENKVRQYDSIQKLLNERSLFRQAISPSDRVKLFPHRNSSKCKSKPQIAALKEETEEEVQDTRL

Compound | pEC50 [1] | pEC50 [2] | Maximum % activity (with co-corrector) (with co-corrector (2 μM)) | Emax (without co-corrector) | pEC50 [3] | pEC50 [4] | Maximum % activity (with co-corrector) [5] | Emax (CSE-HRP, without co-corrector) | Emax [6] | Maximum % activity (with co-corrector) [7]
COc1ccc(C(C)(C)C)cc1CN[C@H]1[C@H](C(C)(C)C)[C@@H](C(=O)O)N(C(=O)[C@H](C)c2ccccc2)[C@H]1c1cccnc1OC [Example I-239] | 5.00 to 6.00 | 5.00 to 6.00 | +++ (≥350) | 100 to 200% | – | – | – | – | – | –
COc1ncc(C2CCCC2)cc1CN[C@H]1[C@H](C(C)(C)OC)[C@@H](C(=O)O)N(C(=O)C2CCCCC2)[C@H]1c1ccccc1 [Example I-116] | > 6.00 | > 6.00 | +++ (≥350) | 100 to 200% | – | – | – | – | – | –
COc1ccc(C(C)(C)C)cc1CN[C@H]1[C@H](C(C)(C)C)[C@@H](C(=O)O)N(C(=O)C2CCCCC2)[C@H]1c1ccc(F)cc1 [Example I-112] | > 6.00 | > 6.00 | +++ (≥350) | > 200% | – | – | – | – | – | –
COc1ccc(C(C)(C)C)cc1CN[C@H]1[C@H](C(C)(C)C)[C@@H](C(=O)O)N(C(=O)C2CCCN(C)C2=O)[C@H]1c1ccccc1 (single isomer, unassigned) [Example I-191] | 5.00 to 6.00 | 5.00 to 6.00 | +++ (≥350) | > 200% | – | – | – | – | – | –
COc1ccc(C(C)(C)C)cc1CN[C@H]1[C@H](C(C)(C)C)[C@@H](C(=O)O)N(C(=O)c2cnn(C(C)(C)C)c2C(C)C)[C@H]1c1ccccc1 [Example I-145] | 5.00 to 6.00 | 5.00 to 6.00 | +++ (≥350) | 100 to 200% | – | – | – | – | – | –
COc1ccc(C(F)(F)F)cc1CN[C@H]1[C@H](C(C)(C)C)[C@@H](C(=O)O)N(C(=O)C2CCCCC2)[C@H]1c1ccccc1 [Example 9, (2S,3S,4S,5S)-3-tert-butyl-1-(cyclohexanecarbonyl)-4-({[2-methoxy-5-(trifluoromethyl)phenyl]methyl}amino)-5-phenylpyrrolidine-2-carboxylic acid] | > 6.00 | > 6.00 | +++ (≥350) | 100 to 200% | – | – | – | – | – | –
COc1ccc(C(C)(C)C)cc1CN[C@H]1[C@H](C(C)(C)C)[C@@H](C(=O)O)N(C(=O)C2CC3CC3C2)[C@H]1c1ccccc1 (stereo partly shown) [Example I-186] | 5.00 to 6.00 | 5.00 to 6.00 | +++ (≥350) | 100 to 200% | – | – | – | – | – | –
COc1ccc(C2(C(F)(F)F)CC2)nc1CN[C@H]1[C@H](C(C)(C)C)[C@@H](C(=O)O)N(C(=O)C2CCCCC2)[C@H]1c1ccccc1 [Example I-170] | 5.00 to 6.00 | 5.00 to 6.00 | +++ (≥350) | < 100% | – | – | – | – | – | –
COc1cc(C(F)(F)F)ccc1CN[C@H]1[C@H](C(C)(C)C)[C@@H](C(=O)O)N(C(=O)C(C)c2ccccc2)[C@H]1c1ccccc1 (relative stereo) [Example 11, (2S,3S,4S,5S)-3-tert-butyl-4-({[2-methoxy-4-(trifluoromethyl)phenyl]methyl}amino)-5-phenyl-1-[(2R*)-2-phenylpropanoyl]pyrrolidine-2-carboxylic acid] | 5.00 to 6.00 | 5.00 to 6.00 | +++ (≥350) | 100 to 200% | – | – | – | – | – | –

Next, values leading:

pEC50 [1] | pEC50 [2] | Maximum % activity (with co-corrector) (with co-corrector (2 μM)) | Emax (without co-corrector) | pEC50 [3] | pEC50 [4] | Maximum % activity (with co-corrector) [5] | Emax (CSE-HRP, without co-corrector) | Emax [6] | Maximum % activity (with co-corrector) [7] | Compound
– | – | – | – | 5.00 to 6.00 | 5.00 to 6.00 | +++ (≥350) | 100 to 200% | – | – | COc1ccc(C2=CCOC2)cc1CN[C@H]1[C@H](C(C)(C)C)[C@@H](C(=O)O)N(C(=O)C2CCCCC2)[C@H]1c1ccccc1 [II-293]
– | – | – | – | 5.00 to 6.00 | 5.00 to 6.00 | +++ (≥350) | 100 to 200% | – | – | COc1ccc(C(C)(C)C)cc1CN[C@H]1[C@H](C(C)(C)C)[C@@H](C(=O)O)N(C(=O)CC2CCOCC2)[C@H]1c1ccccc1 [II-162]
5.00 to 6.00 | 5.00 to 6.00 | – | – | – | – | – | – | > 200% | +++ (≥350) | COc1ccc(C(C)(C)C)cc1CN[C@H]1[C@H](C(C)(C)C)[C@@H](C(=O)O)N(C(=O)C2CCN(C(=O)C3CC3)CC2)[C@H]1c1ccccc1 [II-316]
– | – | – | – | > 6.00 | 5.00 to 6.00 | ++ (≥150 and <350) | < 100% | – | – | Cc1ccc(C(F)(F)F)cc1CN[C@@H]1[C@@H](C(C)(C)C)[C@H](C(=O)O)N(C(=O)C2CCCCC2)[C@@H]1c1ccccc1 (racemic) [II-72]
5.00 to 6.00 | 5.00 to 6.00 | +++ (≥350) | – | – | – | – | – | 100 to 200% | – | COc1ccc(C23CC(C2)C3)cc1CN[C@H]1[C@H](C(C)(C)C)[C@@H](C(=O)O)N(C(=O)OC(C)C)[C@H]1c1cccnc1OC(F)F [III-218]
< 5.00 | < 5.00 | + (<150) | – | – | – | – | – | < 100% | – | CC(C)(C)[C@H]1[C@H](Nc2nc(Nc3ccccc3)ccc2C#N)[C@H](c2ccccc2)N(C(=O)C2CCCCC2)[C@@H]1C(=O)O [III-150]
< 5.00 | 5.00 to 6.00 | ++ (≥150 and <350) | – | – | – | – | – | < 100% | – | CC(C)(C)[C@@H]1[C@@H](NCc2cc(Br)ccc2C#N)[C@@H](c2ccccc2)N(C(=O)C2CCCCC2)[C@H]1C(=O)O (racemic) [III-109]
5.00 to 6.00 | 5.00 to 6.00 | – | – | – | – | – | – | < 100% | ++ (≥150 and <350) | COc1ncc(C(F)(F)F)cc1CN[C@H]1[C@H](C(C)(C)C)[C@@H](C(=O)O)N(C(=O)[C@H]2CCCCO2)[C@H]1c1cccnc1N(C)C [II-478]
– | – | – | – | 5.00 to 6.00 | 5.00 to 6.00 | +++ (≥350) | 100 to 200% | – | – | COc1ncc(N2CCCC2)cc1CN[C@H]1[C@H](C(C)(C)C)[C@@H](C(=O)O)N(C(=O)C2CCCCC2)[C@H]1c1ccccc1 [II-246]
5.00 to 6.00 | 5.00 to 6.00 | – | – | – | – | – | – | > 200% | +++ (≥350) | COc1ccc(C(C)(C)C)cc1CN[C@H]1[C@H](C(C)(C)C)[C@@H](C(=O)O)N(C(=O)CC(C)(O)C(C)C)[C@H]1c1ccccc1 (stereo partly shown) [II-372]
– | – | – | – | 5.00 to 6.00 | 5.00 to 6.00 | +++ (≥350) | 100 to 200% | – | – | COc1ccc(C(F)(F)F)cc1CN[C@H]1[C@H](C(C)(C)C)[C@@H](C(=O)O)N(C(=O)[C@H](OC)c2ccccc2)[C@H]1c1cccnc1N(C)C (racemic) [II-33]
– | – | – | – | 5.00 to 6.00 | 5.00 to 6.00 | +++ (≥350) | 100 to 200% | – | – | COc1cc(C(F)(F)F)ccc1CN[C@H]1[C@H](C(C)(C)C)[C@@H](C(=O)O)N(C(=O)[C@H](OC)c2ccccc2)[C@H]1c1cccnc1OC [II-84]
> 6.00 | > 6.00 | – | – | – | – | – | – | > 200% | +++ (≥350) | COc1ccc(C(C)(C)C)cc1CN[C@H]1[C@H](C(C)(C)C)[C@@H](C(=O)O)N(C(=O)C2CCc3ccccc32)[C@H]1c1ccccc1 (stereo partly shown) [II-337]
– | – | – | – | < 5.00 | 5.00 to 6.00 | ++ (≥150 and <350) | < 100% | – | – | COc1cc(CN[C@H]2[C@H](C(C)(C)C)[C@@H](C(=O)O)N(C(=O)C3CCCCC3)[C@H]2c2ccccc2)ccc1F [II-112]
5.00 to 6.00 | 5.00 to 6.00 | – | – | – | – | – | – | < 100% | +++ (≥350) | COc1ccc(C(F)(F)F)cc1CN[C@H]1[C@H](C(C)(C)C)[C@@H](C(=O)O)N(C(=O)C2(C)CCCOC2)[C@H]1c1ccccc1N(C)C (mixture of isomers) [III-77]
5.00 to 6.00 | 5.00 to 6.00 | – | – | – | – | – | – | 100 to 200% | +++ (≥350) | COCC1(c2ccc(OC)c(CN[C@H]3[C@H](C(C)(C)C)[C@@H](C(=O)O)N(C(=O)C4CCCCC4)[C@H]3c3ccccc3)c2)CC1 [II-420]
